Data as given in patent US20220331442A1, “ANTIBODY-BIOMOLECULE CONJUGATES LINKED THROUGH MULTIFUNCTIONAL MACROMOLECULE AND USES THEREOF” (LEVIM BIOTECH LLP, priority 2018, published 2022).

Experiments:
[1] = system: H23 NSCLC cells; test: MTT cytotoxicity assay; type: cell-based; conditions: gefitinib alone, up to a concentration of 25 μM, FIG. 21(b)
[2] = MTT cytotoxicity assay; type: cell-based; conditions: human, H23 NSCLC cells; gefitinib alone at 50 μM, FIG. 21(b); read-out: Loss of viability of H23 cells

## COc1cc2ncnc(Nc3ccc(F)c(Cl)c3)c2cc1OCCCN1CCOCC1 [gefitinib]
[1]
  Cytotoxicity (MTT): no toxicity
[2]
  cytotoxicity at 50 μM: 70%
